The record followed here is patent publication US8907153B2, “Adhesive peel-forming formulations for dermal delivery of drugs and methods of using the same” (Nuvo Research Inc., priority 2004, dated 2014).

The conditions of the data set: hairless mouse skin, 35° C., mean and SD of three.

Structures are written as SMILES. Like-named read-outs stand apart in the source and are kept apart here.

With `CCCN1CCCC[C@H]1C(=O)Nc1c(C)cccc1C` [Ropivacaine], the “Average flux (steady-state flux of ropivacaine)” value (from here on “Average flux”) (saturated in Glycerin) was determined as 1.2 ± 0.7 mcg/cm^2/h; the “Average flux” value (saturated in ISA (isostearic acid)) amounted to 11 ± 2 mcg/cm^2/h; the “Average flux” value (saturated in Mineral Oil) was determined as 8.9 ± 0.6 mcg/cm^2/h; the “Average flux” value (saturated in Span 20) was determined as 26 ± 8 mcg/cm^2/h; the “Average flux” value (saturated in Tween 20) stood at 2.4 ± 0.1 mcg/cm^2/h.
